This is an account of results in article PMC6792352, “Limited Chemical Structural Diversity Found to Modulate Thyroid Hormone Receptor in the Tox21 Chemical Library” (Environmental Health Perspectives, 2019).

Where a name gives a salt, the structure may show the parent alone.

What is called CC50 is the concentration giving 50% cytotoxicity. A higher CC50 goes with better tolerance by the cells.

The nature of one data set: in vitro. The settings on record: rat, gh3-tre-luc cells, AC50 (uM) modified / 1000.
As to `CC(C)(C)OC(=O)N1CC(N)C1` [Lithium sulfate], the 50% cytotoxic concentration (CC50) at 24 h was over 5 µM.
Still for that read-out and setting: under `CN1[C@@H](CC(=O)c2ccccc2)CCC[C@H]1C[C@H](O)c1ccccc1` [Lobeline] stands over 50 µM; under `O=C(O)c1ccccc1Nc1cc(Cl)ccc1C(=O)O` [Lobenzarit sodium], over 50 µM.
The same measure, in the same setting: under `CN(CCCN1c2ccccc2CCc2ccccc21)CC(=O)c1ccc(Cl)cc1` [Lofepramine hydrochloride] stands 22 µM.
Molecule `CCn1cc(C(=O)O)c(=O)c2cc(F)c(N3CCNC(C)C3)c(F)c21` (centres unmarked) [Lomefloxacin hydrochloride] came in with a CC50 at 24 h of over 50 µM.
Still for that read-out and setting: under `COc1ccc(CN2CCN(C(c3ccc(F)cc3)c3ccc(F)cc3)CC2)c(OC)c1OC` [Lomerizine dihydrochloride] stands 10.5 µM; under `O=C(O)Cc1cn(-c2ccccc2)nc1-c1ccc(Cl)cc1` [Lonazolac], over 50 µM.
Regarding `C=C1[C@H]2CC[C@@H]3[C@H]2C(C)(C)CCC[C@]13C` [Longifolene], the CC50 at 24 h is over 90 µM.
The same measure, in the same setting: under `O=C(O)c1nn(Cc2ccc(Cl)cc2Cl)c2ccccc12` [Lonidamine] stands over 90 µM; under `CN(C)C(=O)C(CCN1CCC(O)(c2ccc(Cl)cc2)CC1)(c1ccccc1)c1ccccc1` [Loperamide], 6.34 µM.
On the same count and under the same terms, under `Cc1cccc(C)c1OCC(=O)N[C@@H](Cc1ccccc1)[C@@H](O)C[C@H](Cc1ccccc1)NC(=O)[C@H](C(C)C)N1CCCNC1=O` [Lopinavir] stands 24.6 µM; under `N[C@@H](C(=O)N[C@@H]1C(=O)N2C(C(=O)O)=C(Cl)CC[C@H]12)c1ccccc1` [Loracarbef monohydrate], over 50 µM.
With `O=C1Nc2ccc(Cl)cc2C(c2ccccc2Cl)=NC1O` (centres unmarked) [Lorazepam], the CC50 at 24 h was over 50 µM.
For `Cl/C(=C\n1cncn1)c1ccc(Cl)cc1Cl` [Loreclezole hydrochloride], the CC50 at 24 h is over 50 µM.
On the same count and under the same terms, for `O=S(=O)(O)c1cc(I)c(O)c2ncccc12` [Loretin] the value was over 50 µM; for `CCCCCN(CCCCC)C(=O)C(CCC(=O)O)NC(=O)c1ccc(Cl)c(Cl)c1` (centres unmarked) [Lorglumide sodium], over 50 µM.
Molecule `CN1C(C(=O)Nc2ccccn2)=C(O)c2sc(Cl)cc2S1(=O)=O` [Lornoxicam] gave a CC50 at 24 h of over 50 µM.
Consider `CCCCc1nc(Cl)c(CO)n1Cc1ccc(-c2ccccc2-c2nn[nH]n2)cc1` [Losartan], for which the CC50 at 24 h is over 50 µM.
Still for that read-out and setting: for `CCOC(=O)O[C@]1(C(=O)OCCl)CC[C@H]2[C@@H]3CCC4=CC(=O)C=C[C@]4(C)[C@H]3[C@@H](O)C[C@@]21C` [Loteprednol etabonate] the value was over 50 µM.
In the case of `CN1CCN(C2=Nc3ccccc3Oc3ccc(Cl)cc32)CC1` [Loxapine succinate], the CC50 at 24 h is 7.25 µM.
The same measure, in the same setting: for `CC(C(=O)O)c1ccc(CC2CCCC2=O)cc1` (centres unmarked) [Loxoprofen] the value was over 50 µM; for `C=CCn1c(=O)n([C@@H]2O[C@H](CO)[C@@H](O)[C@H]2O)c2nc(N)[nH]c(=O)c21` [Loxoribine], over 50 µM.
Same read-out and setting: for `CCNC(=O)NCc1cccc(Cl)c1` [Lozilurea] the value was over 50 µM; for `CCCCC(F)(F)[C@@]1(O)CC[C@H]2[C@@H](CC(=O)[C@@H]2CCCCCCC(=O)O)O1` [Lubiprostone], over 50 µM.
On the same count and under the same terms, for `O=C(NC(=O)c1c(F)cccc1F)Nc1cc(Cl)c(OC(F)(F)C(F)C(F)(F)F)cc1Cl` (centres unmarked) [Lufenuron] the value was over 90 µM; for `CCCCN(CCCC)CC(O)c1cc(Cl)cc2c1-c1ccc(Cl)cc1/C2=C/c1ccc(Cl)cc1` (centres unmarked) [Lumefantrine], 38.5 µM; for `Nc1cccc2c(=O)[nH][nH]c(=O)c12` [Luminol], over 90 µM.
`Cc1ccc(Nc2c(F)cccc2Cl)c(CC(=O)O)c1` [Lumiracoxib] yielded a CC50 at 24 h of over 50 µM.
The same measure, in the same setting: under `CC1=C[C@H](O)CC(C)(C)[C@H]1/C=C/C(C)=C/C=C/C(C)=C/C=C/C=C(C)/C=C/C=C(C)/C=C/C1=C(C)C[C@@H](O)CC1(C)C` [Lutein] stands 28.4 µM; under `CC(C)=CCC/C(C)=C/C=C/C(C)=C/C=C/C(C)=C/C=C/C=C(C)/C=C/C=C(C)/C=C/C=C(\C)CCC=C(C)C` [Lycopene], over 50 µM.
The same measure, in the same setting: for `CN(C)[C@@H]1C(=O)C(C(=O)NCNCCCC[C@H](N)C(=O)O)=C(O)[C@@]2(O)C(=O)C3=C(O)c4c(O)cccc4[C@@](C)(O)[C@H]3C[C@@H]12` [Lymecycline] the value was over 20 µM; for `NCCCC[C@H](NC(=O)[C@@H]1CCCN1C(=O)[C@@H]1CSSC[C@H](N)C(=O)N[C@@H](Cc2ccc(O)cc2)C(=O)N[C@@H](Cc2ccccc2)C(=O)N[C@@H](CCC(N)=O)C(=O)N[C@@H](CC(N)=O)C(=O)N1)C(=O)NCC(N)=O` [Lypressin], over 50 µM.
`NCCCC[C@H](N)C(=O)O` [Lysine] returned a CC50 at 24 h of over 50 µM.
Same read-out and setting: for `CCCCC(CC)COC(=O)COc1ccc(Cl)cc1C` (centres unmarked) [MCPA-2-ethylhexyl] the value was over 90 µM; for `Cc1cc(Cl)ccc1OCC(=O)O` [MCPA], over 90 µM.
Same read-out and setting: for `CN1[C@@H]2CC[C@H]1C[C@@H](OC(=O)c1cc(Cl)cc(Cl)c1)C2` [MDL 72222] the value was 35.2 µM; for `CCCCC(CC)COC(=O)c1ccccc1C(=O)O` (centres unmarked) [MEHP], over 90 µM; for `NC(=O)c1nc(-c2cccc(-c3cc(F)ccc3OCC(F)(F)C(F)(F)F)c2)n[nH]1` [MK-274], 53.5 µM.
In the case of `CCCCc1ccc2c(n1)[C@@H](c1ccc(OC)cc1C[C@H](C)C(=O)O)[C@H](C(=O)O)[C@H]2c1ccc2c(c1)OCO2` [MK-547], the CC50 at 24 h was over 90 µM.
Same read-out and setting: under `CN(C)C(=O)CCSC(SCCC(=O)O)c1cccc(/C=C/c2ccc3ccc(Cl)cc3n2)c1` (centres unmarked) [MK-571 sodium] stands 28.9 µM.
Regarding `CCn1nc(Cc2ccccc2)cc1C1CCN(C[C@H]2C[C@H](N(C)[C@@H](C(=O)O)C(C)C)C[C@@H]2c2cccc(F)c2)CC1` [MK-578], the CC50 at 24 h stood at 66.4 µM.
On the same count and under the same terms, for `CO[C@@H]1COCC[C@@H]1N[C@@H]1CC[C@@](C(=O)N2CCc3ncc(C(F)(F)F)cc3C2)(C(C)C)C1` [MK-812] the value was over 90 µM; for `Fc1ccccc1[C@@H](F)COC1CCC(Nc2ncnc3[nH]ncc23)CC1` (some centres unmarked) [MK-968], 82.7 µM; for `NC1(c2ccc(-c3nc4ccn5c(=O)[nH]nc5c4cc3-c3ccccc3)cc2)CCC1` [MK-2206], 16.8 µM.
Molecule `O=C(C(Cl)Cl)N1CCOC12CCCCC2` [MON-4660] gave a CC50 at 24 h of 62.3 µM.
Turning to `CC(C)(C)NCC(O)c1cc(Cl)c(N)c(C(F)(F)F)c1` (centres unmarked) [Mabuterol hydrochloride], the midpoint of cytotoxicity, the CC50 at 24 h, lay at 22.3 µM.
Consider `CO[C@@H]1[C@@H](OC)[C@H](C)[C@@](O)(CC(=O)O)O[C@H]1[C@H](C)[C@H]1O[C@@]2(CC[C@@](C)([C@H]3CC[C@@](C)([C@@H]4O[C@@H]([C@H]5O[C@](C)(O)[C@H](C)C[C@@H]5C)C[C@@H]4O[C@@H]4C[C@H](OC)[C@@H](OC)[C@H](C)O4)O3)O2)C[C@H](O)[C@H]1C` [Maduramicin ammonium], for which the CC50 at 24 h was 0.49 µM.
The same measure, in the same setting: for `NCc1ccc(S(N)(=O)=O)cc1` [Mafenide hydrochloride] the value was over 20 µM.
Still for that read-out and setting: under `O=C(O)/C=C\C(=O)O` [Maleic acid] stands over 90 µM; under `O=C(O)/C=C\C(=O)Nc1ccc(S(=O)(=O)Nc2nccs2)cc1` [Maleylsulfathiazole], over 50 µM.
With `O=C(O)CC(O)C(=O)O` (centres unmarked) [Malic acid], the CC50 at 24 h was over 90 µM.
Same read-out and setting: for `CC(C)OC(=O)C(C(=O)OC(C)C)=C1SC=CS1` [Malotilate] the value was over 50 µM; for `Cc1occc(=O)c1OC(=O)C(C)C` [Maltol isobutyrate], over 90 µM; for `O=C[C@H](O)[C@@H](O)[C@H](O[C@H]1O[C@H](CO)[C@@H](O[C@H]2O[C@H](CO)[C@@H](O)[C@H](O)[C@H]2O)[C@H](O)[C@H]1O)[C@H](O)CO` [Maltotriose], over 50 µM.
For the molecule `O=C1O[C@H]2[C@H](O)[C@@H]1OC(O)[C@H]2O` (some centres unmarked) [Mannuronic acid lactone], the CC50 at 24 h was over 50 µM.

The same data set, now with this note: rat, gh3-tre-luc cells, AC50 (uM) modified / 1000, Tox21_110001=Tox21_111175; viability, 1 nM T3 present, 24 h.
In turn, `CCOC(=O)CC(SP(=S)(OC)OC)C(=O)OCC` (centres unmarked) [Malathion] showed a CC50 at 24 h of over 50 µM.

Staying with this data set, now noted: rat, gh3-tre-luc cells, AC50 (uM) modified / 1000, Tox21_110001=Tox21_111921; viability, 1 nM T3 present, 24 h.
On to `CCCC(C)(COC(N)=O)COC(=O)NC1CC1` (centres unmarked) [Lorbamate], for which the CC50 at 24 h is over 50 µM.

The data set is the same for the next values; noted with them: rat, gh3-tre-luc cells, AC50 (uM) modified / 1000, Tox21_110001=Tox21_112872; viability, 1 nM T3 present, 24 h.
Turning to `CCN(CC)C(=O)[C@@H]1C=C2c3cccc4[nH]cc(c34)C[C@H]2N(C)C1` [Lysergide], the CC50 at 24 h was over 200 µM.

Still in this data set, the particulars now being: rat, gh3-tre-luc cells, AC50 (uM) modified / 1000, Tox21_110001=Tox21_113018; viability, 1 nM T3 present, 24 h.
As to `C[C@H]1CNCCc2ccc(Cl)cc21` [Lorcaserin], the cytotoxic concentration (CC50) at 24 h is over 50 µM.

Still in this data set, the particulars now being: rat, gh3-tre-luc cells, AC50 (uM) modified / 1000, Tox21_110001=Tox21_113508; viability, 1 nM T3 present, 24 h.
Consider `CCN(CC)C(=O)[C@@H]1C=C2c3cccc4[nH]cc(c34)C[C@H]2N(C)C1` [Lysergide], for which the CC50 at 24 h was over 50 µM.

Still in this data set, the particulars now being: rat, gh3-tre-luc cells, AC50 (uM) modified / 1000, Tox21_110001=Tox21_201319; viability, 1 nM T3 present, 24 h.
`Cc1cc(Cl)ccc1OCCCC(=O)O` [MCPB] came in with a CC50 at 24 h of over 100 µM.

Staying with this data set, now noted: rat, gh3-tre-luc cells, AC50 (uM) modified / 1000, Tox21_110001=Tox21_202017; viability, 1 nM T3 present, 24 h.
The molecule `CCOC(=O)CC(SP(=O)(OC)OC)C(=O)OCC` (centres unmarked) [Malaoxon] registered a CC50 at 24 h of over 90 µM.

The data set is the same for the next values; noted with them: rat, gh3-tre-luc cells, AC50 (uM) modified / 1000, Tox21_110001=Tox21_302319; viability, 1 nM T3 present, 24 h.
`O=S(=O)(O)C(F)(F)C(F)(F)C(F)(F)C(F)(F)C(F)(F)C(F)(F)C(F)(F)C(F)(F)F` [Lithium perfluorooctanesulfonate] showed a CC50 at 24 h of 52.3 µM.

Still in this data set, the particulars now being: rat, gh3-tre-luc cells, AC50 (uM) modified / 1000, Tox21_110001=Tox21_303338; viability, 1 nM T3 present, 24 h.
In the case of `Cc1cc(Cl)ccc1OCCCC(=O)O` [MCPB], the CC50 at 24 h is over 90 µM.

The data set is the same for the next values; noted with them: rat, gh3-tre-luc cells, AC50 (uM) modified / 1000, Tox21_110001=Tox21_400048; viability, 1 nM T3 present, 24 h.
`CCOC(=O)CC(SP(=S)(OC)OC)C(=O)OCC` (centres unmarked) [Malathion] returned a half-maximal cytotoxic concentration (CC50) at 24 h of over 90 µM.
